Molecular target: FAS (Homo sapiens, UniProt P49327)
Experiment: FAS assay (Assay #1 residual NADPH detection or Assay #2 CoA detection with thio-reactive coumarin dye)
Type: biochemical
Conditions: average IC50 values, each compound tested two or more times; FAS Assay #1 or #2
Procedure: FAS activity was measured through one of the two following assays.
Inhibition of FAS activity can be measured based on the detection of residual NADPH substrate after the FAS assay is quenched. This assay is run as a 10 μL, endpoint assay in 384-well format, where the reaction contains 20 μM malonyl-CoA, 2 μM acetyl-CoA, 30 μM NADPH and 40 nM FAS in 50 mM sodium phosphate, pH 7.0. The assay is run by sequentially dispensing 5 μl of a malonyl-CoA solution, then enzyme solution (containing the acetyl-CoA, and NADPH) into a black, low volume assay plate (Greiner 784076) pre-dispensed with 100 nL compound solutions in DMSO. The reaction is incubated at ambient temperature for 60 minutes, then quenched with 5 μL, of a developing solution composed of 90 μM resazurin, 0.3 IU/ml diaphorase in 50 mM sodium phosphate, pH 7.0. The developed reaction is read on a Molecular Devices Analyst or Acquest (or equivalent) plate reader using a 530 nm excitation wavelength filter, a 580 nm emission filter, and 561 nm dichroic filter. The test compounds are prepared in neat DMSO at a concentration of 10 mM. For inhibition curves, compounds are diluted using a three fold serial dilution and tested at 11 concentrations (e.g. 25 μM-0.42 nM). Curves are analysed using ActivityBase and XLfit, and results are expressed as pIC50 values.
Inhibition of FAS can also be quantified based on the detection of the CoA products with a thio-reactive coumarin dye. This assay is run as a 10 μL endpoint assay in 384-well format, where the reaction contains 20 μM malonyl-CoA, 20 μM acetyl-CoA, 40 μM NADPH and 2 nM FAS in 50 mM sodium phosphate, pH 7.0, and 0.04% Tween-20. The assay is run by adding 5 μL enzyme solution to a black, low volume assay plate (Greiner 784076) pre-dispensed with 100 nl compound solutions in DMSO. After 30 minutes, 5 μL substrate is added, and the reaction incubated at ambient temperature for an additional 60 minutes. The reaction is then quenched with 10 μL of 6M guanidine-HCl containing 50 μM CPM (7-diethylamino-3-(4′-maleimidylphenyl)-4-methylcoumarin (CPM; thio-reactive dye), and incubated for 30 minutes. The plate is read on an Envision (PerkinElmer) or equivalent plate reader using a 380 nm excitation wavelength filter, and a 486 nm emission filter. Data fitting and compound preparations are done as described above.

FAS, sequence (P49327 whole entry): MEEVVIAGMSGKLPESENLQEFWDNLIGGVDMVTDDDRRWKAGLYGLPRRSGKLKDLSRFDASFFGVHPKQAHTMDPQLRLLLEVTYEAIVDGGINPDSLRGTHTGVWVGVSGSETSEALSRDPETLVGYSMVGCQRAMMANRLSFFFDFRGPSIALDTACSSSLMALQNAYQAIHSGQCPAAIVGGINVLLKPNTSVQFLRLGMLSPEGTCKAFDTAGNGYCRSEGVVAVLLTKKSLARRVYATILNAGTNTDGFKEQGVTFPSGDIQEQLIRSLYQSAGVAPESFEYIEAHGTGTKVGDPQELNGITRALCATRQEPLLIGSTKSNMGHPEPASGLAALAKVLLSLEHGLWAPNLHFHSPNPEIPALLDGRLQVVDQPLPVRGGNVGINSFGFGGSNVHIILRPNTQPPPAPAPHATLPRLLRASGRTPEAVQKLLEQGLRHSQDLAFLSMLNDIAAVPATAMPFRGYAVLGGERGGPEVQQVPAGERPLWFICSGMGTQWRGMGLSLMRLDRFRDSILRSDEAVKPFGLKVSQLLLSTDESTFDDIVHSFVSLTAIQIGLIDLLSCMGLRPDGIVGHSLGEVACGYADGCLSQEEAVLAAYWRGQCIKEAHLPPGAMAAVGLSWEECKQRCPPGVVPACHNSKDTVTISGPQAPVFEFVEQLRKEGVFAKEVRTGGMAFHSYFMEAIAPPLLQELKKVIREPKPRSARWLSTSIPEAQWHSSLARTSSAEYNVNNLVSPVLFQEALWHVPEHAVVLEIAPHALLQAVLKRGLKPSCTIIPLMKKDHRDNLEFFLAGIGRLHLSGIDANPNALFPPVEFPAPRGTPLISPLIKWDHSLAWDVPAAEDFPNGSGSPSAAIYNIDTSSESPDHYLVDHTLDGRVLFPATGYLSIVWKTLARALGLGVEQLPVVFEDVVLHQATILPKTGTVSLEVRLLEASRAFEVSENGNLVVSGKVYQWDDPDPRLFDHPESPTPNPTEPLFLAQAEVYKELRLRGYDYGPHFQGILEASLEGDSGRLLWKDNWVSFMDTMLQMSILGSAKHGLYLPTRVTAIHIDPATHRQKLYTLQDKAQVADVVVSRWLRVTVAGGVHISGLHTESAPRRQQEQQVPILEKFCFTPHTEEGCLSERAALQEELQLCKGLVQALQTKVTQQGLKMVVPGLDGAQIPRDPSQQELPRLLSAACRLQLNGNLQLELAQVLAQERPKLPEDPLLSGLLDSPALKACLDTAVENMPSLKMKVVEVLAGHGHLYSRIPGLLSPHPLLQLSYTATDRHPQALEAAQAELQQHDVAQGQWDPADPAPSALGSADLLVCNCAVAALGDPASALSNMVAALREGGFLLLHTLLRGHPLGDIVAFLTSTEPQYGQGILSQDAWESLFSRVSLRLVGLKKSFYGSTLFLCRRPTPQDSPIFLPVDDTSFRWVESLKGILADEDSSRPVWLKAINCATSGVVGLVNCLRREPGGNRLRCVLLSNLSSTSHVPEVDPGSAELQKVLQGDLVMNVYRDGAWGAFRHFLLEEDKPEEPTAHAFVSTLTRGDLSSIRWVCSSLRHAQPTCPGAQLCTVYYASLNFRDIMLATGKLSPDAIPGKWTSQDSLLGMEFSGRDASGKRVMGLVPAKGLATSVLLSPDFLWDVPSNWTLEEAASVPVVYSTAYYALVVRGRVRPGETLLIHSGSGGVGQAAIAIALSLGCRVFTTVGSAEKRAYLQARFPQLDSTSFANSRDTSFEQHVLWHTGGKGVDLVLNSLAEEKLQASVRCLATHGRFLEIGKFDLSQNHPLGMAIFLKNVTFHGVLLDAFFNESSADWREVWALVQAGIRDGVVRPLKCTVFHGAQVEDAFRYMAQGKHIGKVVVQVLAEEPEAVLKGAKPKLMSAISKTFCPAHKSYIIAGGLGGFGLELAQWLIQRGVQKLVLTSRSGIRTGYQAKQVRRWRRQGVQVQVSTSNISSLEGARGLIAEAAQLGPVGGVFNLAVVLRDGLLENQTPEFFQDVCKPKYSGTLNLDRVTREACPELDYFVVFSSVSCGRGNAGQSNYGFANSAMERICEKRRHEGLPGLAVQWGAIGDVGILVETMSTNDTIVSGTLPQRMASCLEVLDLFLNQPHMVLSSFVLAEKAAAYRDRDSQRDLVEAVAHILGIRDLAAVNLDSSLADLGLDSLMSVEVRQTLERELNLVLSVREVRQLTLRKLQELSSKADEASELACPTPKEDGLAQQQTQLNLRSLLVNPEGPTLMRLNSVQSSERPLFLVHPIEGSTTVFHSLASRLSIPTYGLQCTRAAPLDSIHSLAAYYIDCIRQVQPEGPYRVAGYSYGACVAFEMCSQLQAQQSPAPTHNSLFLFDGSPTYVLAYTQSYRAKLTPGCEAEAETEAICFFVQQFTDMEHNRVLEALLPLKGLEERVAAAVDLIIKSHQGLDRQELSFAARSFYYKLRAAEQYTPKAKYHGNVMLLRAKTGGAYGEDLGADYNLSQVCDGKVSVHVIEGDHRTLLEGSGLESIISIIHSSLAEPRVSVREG

| IC50 | SMILES |
| --- | --- |
| 251 nM | CCN1CC2(CCN(S(=O)(=O)c3ccc(-c4ccc5occc5c4)cc3)CC2)OCC1=O [Example 3, 9-{[4-(1-benzofuran-5-yl)phenyl]sulfonyl}-4-ethyl-1-oxa-4,9-diazaspiro[5.5]undecan-3-one] |
| 1260 nM | O=C1COC2(CCN(S(=O)(=O)c3ccc(-c4ccccc4)cc3)CC2)CN1C1CC1 [Example 13, 9-(4-biphenylylsulfonyl)-4-cyclopropyl-1-oxa-4,9-diazaspiro[5.5]undecan-3-one] |
| 40 nM | O=C1COC2(CCN(S(=O)(=O)c3ccc(-c4ccc5cc[nH]c5c4)cc3)CC2)CN1C1CC1 [Example 14, 4-cyclopropyl-9-{[4-(1H-indol-6-yl)phenyl]sulfonyl}-1-oxa-4,9-diazaspiro[5.5]undecan-3-one] |
| 200 nM | O=C1COC2(CCN(S(=O)(=O)c3ccc(-c4cc5ccccc5o4)cc3)CC2)CN1C1CC1 [Example 26, 9-{[4-(1-benzofuran-2-yl)phenyl]sulfonyl}-4-cyclopropyl-1-oxa-4,9-diazaspiro[5.5]undecan-3-one] |
| 10 nM | O=C1COC2(CCN(S(=O)(=O)c3ccc(-c4ccc5cccnc5c4)cc3)CC2)CN1C1CC1 [Example 29, 4-cyclopropyl-9-{[4-(7-quinolinyl)phenyl]sulfonyl}-1-oxa-4,9-diazaspiro[5.5]undecan-3-one] |
| 13 nM | O=C1COC2(CCN(S(=O)(=O)c3ccc(-c4ccc5cccnc5c4)cc3F)CC2)CN1C1CC1 [Example 59, 4-cyclopropyl-9-{[2-fluoro-4-(7-quinolinyl)phenyl]sulfonyl}-1-oxa-4,9-diazaspiro[5.5]undecan-3-one] |
| 32 nM | O=C1COC2(CCN(S(=O)(=O)c3ccc(-c4ccc5[nH]ccc5c4)cc3F)CC2)CN1C1CC1 [Example 70, 4-cyclopropyl-9-{[2-fluoro-4-(1H-indol-5-yl)phenyl]sulfonyl}-1-oxa-4,9-diazaspiro[5.5]undecan-3-one] |
| 32 nM | O=C1COC2(CCN(S(=O)(=O)c3ccc(-c4ccc5scnc5c4)cc3F)CC2)CN1C1CC1 [Example 76, 9-{[4-(1,3-benzothiazol-5-yl)-2-fluorophenyl]sulfonyl}-4-cyclopropyl-1-oxa-4,9-diazaspiro[5.5]undecan-3-one] |
| 6 nM | O=C1COC2(CCN(S(=O)(=O)c3ccc(-c4ccc5cnccc5c4)cc3)CC2)CN1C1CC1 [Example 86, 4-cyclopropyl-9-{[4-(6-isoquinolinyl)phenyl]sulfonyl}-1-oxa-4,9-diazaspiro[5.5]undecan-3-one] |
| 63 nM | Cn1nc(NS(C)(=O)=O)c2cc(-c3ccc(S(=O)(=O)N4CCC5(CC4)CN(C4CC4)C(=O)CO5)cc3)ccc21 [Example 105, N-(5-{4-[(4-cyclopropyl-3-oxo-1-oxa-4,9-diazaspiro[5.5]undec-9-yl)sulfonyl]phenyl}-1-methyl-1H-indazol-3-yl)methanesulfonamide] |

Source: patent publication US20130237535A1, “FATTY ACID SYNTHASE INHIBITORS” (priority 2010, published 2013)
